Several values for one entry are separate records, joined by “and”; a condition that tells them apart may be missing. Identical values can stand only once. Like-named read-outs stand apart in the source and are kept apart here.
Key:
COX-1 = target: T1, COX-1 (Ovis aries, UniProt P05979); assay: COX-1 inhibition assay (COX fluorescent inhibitor assay kit); format: biochemical
T1 construct: purchased Cayman Chemical
T1 sequence (P05979 25-600): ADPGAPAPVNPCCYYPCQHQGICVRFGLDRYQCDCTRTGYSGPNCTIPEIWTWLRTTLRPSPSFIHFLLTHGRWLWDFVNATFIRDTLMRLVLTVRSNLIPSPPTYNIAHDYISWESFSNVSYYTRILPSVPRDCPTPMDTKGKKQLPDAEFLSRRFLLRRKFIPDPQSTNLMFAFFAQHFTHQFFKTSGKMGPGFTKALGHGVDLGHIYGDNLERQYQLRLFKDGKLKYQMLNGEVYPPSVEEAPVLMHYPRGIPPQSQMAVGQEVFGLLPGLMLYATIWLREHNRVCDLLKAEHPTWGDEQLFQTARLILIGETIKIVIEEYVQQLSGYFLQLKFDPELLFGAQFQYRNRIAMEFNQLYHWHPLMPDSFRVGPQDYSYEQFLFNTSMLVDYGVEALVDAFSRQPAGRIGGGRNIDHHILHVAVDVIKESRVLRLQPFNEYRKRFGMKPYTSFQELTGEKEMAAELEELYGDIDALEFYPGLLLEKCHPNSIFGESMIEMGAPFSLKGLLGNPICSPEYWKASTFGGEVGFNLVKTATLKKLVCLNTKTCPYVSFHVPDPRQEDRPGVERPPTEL
Protocol: (§1) COX assays were performed using the COX fluorescent inhibitor assay kit with some modifications. This assay was based on the reaction between prostaglandin G2 (PGG2), product of COX activity, and 10-acetyl-3,7-dihydroxyphenoxazine (ADHP), producing a highly fluorescent compound, resorufin. Briefly, 60 µL of Tris-HCl buffer (100 mM, pH 8.0), 5 µL of hemin, 5 µL of COX (COX-1 or COX-2) and 5 µL of increasing concentrations of each compound (6.25–100 µM) were added to each well in a black 96-well plate. After 5 min, at room temperature, the reaction started by adding 5 µL of ADHP and 20 µL of substrate (AA 0.5 mM with KOH 2.5 mM) in each well. After 3 min, the fluorescence was measured at 590 nm, setting the excitation wavelength at 535 nm, using a multiplate reader Synergy H1 Biotek. The results were expressed as % of COX inhibition and correspond to the mean ± SEM of four independent assays, each performed in duplicate. SC-560 was used as the positive control for COX-1 and Dup-697 was used as the positive control for COX-2 assay.

COX-2 = target: T2, COX-2 (Homo sapiens, UniProt P35354); assay: COX-2 inhibition assay (COX fluorescent inhibitor assay kit); format: biochemical
T2 construct: purchased Cayman Chemical
T2 sequence (P35354 18-604): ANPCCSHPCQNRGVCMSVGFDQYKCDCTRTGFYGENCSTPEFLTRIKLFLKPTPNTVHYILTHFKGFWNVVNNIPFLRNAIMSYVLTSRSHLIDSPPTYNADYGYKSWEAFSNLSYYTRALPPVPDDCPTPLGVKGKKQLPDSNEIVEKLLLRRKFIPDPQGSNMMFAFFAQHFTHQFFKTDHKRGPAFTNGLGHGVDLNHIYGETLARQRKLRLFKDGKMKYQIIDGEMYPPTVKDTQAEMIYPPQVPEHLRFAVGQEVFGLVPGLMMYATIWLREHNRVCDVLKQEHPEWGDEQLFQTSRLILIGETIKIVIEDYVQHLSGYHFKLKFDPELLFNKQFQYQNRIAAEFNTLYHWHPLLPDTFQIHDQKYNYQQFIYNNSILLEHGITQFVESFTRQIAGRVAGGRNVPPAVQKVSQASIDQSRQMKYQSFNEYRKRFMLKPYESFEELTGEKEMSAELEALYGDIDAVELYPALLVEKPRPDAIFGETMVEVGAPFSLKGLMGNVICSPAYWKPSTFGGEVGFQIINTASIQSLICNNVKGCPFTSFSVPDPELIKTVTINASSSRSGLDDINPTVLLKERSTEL
Protocol: as §1

5-LOX = target: T3, 5-LOX (Glycine max, UniProt P08170); assay: 5-LOX inhibition assay; format: biochemical, Glycine max (soybean); conditions: for inhibition at 100 µM: read-out: inhibition of the 5-LOX enzyme; for IC50: read-out: IC50 5-LOX pure enzyme
T3 construct: purchased Sigma-Aldrich
T3 sequence (P08170 1-839): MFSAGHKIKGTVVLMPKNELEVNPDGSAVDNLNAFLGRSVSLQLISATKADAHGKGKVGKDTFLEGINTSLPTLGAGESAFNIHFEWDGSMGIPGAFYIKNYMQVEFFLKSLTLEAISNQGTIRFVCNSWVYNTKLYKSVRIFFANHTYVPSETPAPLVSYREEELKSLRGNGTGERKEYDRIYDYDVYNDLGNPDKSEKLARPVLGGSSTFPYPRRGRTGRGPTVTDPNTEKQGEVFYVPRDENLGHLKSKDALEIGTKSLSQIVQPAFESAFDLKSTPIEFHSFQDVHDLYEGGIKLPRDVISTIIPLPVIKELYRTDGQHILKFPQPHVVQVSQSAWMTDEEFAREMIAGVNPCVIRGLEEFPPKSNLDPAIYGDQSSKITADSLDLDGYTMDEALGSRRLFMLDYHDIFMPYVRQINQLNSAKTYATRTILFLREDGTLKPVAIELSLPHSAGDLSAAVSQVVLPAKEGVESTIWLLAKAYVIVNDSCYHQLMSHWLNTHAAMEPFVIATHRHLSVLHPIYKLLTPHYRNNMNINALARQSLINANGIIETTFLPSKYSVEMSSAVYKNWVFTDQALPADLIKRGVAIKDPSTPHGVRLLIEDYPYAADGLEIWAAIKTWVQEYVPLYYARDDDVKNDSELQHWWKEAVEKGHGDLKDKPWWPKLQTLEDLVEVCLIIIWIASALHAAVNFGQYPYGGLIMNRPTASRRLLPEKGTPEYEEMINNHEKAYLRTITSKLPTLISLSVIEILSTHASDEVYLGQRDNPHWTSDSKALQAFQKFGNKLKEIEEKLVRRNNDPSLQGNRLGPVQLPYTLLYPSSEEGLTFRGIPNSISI

[1] = target: PLA2 + 5-LOX coupled system (Apis mellifera, UniProt P00630); assay: biochemical; format: biochemical, Apis mellifera bee venom (PLA2), Glycine max (5-LOX); conditions: for IC50: read-out: IC50 PLA2 + 5-LOX coupled system; for inhibition at 100 µM: read-out: inhibition of PLA2 + 5-LOX coupled system
PLA2 + 5-LOX coupled system, sequence (P00630 whole entry, looked up): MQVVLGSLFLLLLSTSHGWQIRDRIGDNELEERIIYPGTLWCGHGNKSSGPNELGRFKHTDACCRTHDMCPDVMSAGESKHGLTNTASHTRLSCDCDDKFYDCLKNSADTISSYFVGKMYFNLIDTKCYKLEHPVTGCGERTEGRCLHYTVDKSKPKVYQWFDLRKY

C/C=C(/C=O)[C@@H](CC=O)CC(=O)OCCc1ccc(O)cc1 [oleocanthal, reference compound]
IC50 (COX-1): < 0.1 µM
IC50 (COX-2; read-out: IC50 COX-2): 16.6 µM

O=c1c(O)c(-c2ccc(O)c(O)c2)oc2cc(O)cc(O)c12 [quercetin, reference compound]
inhibition at 100 µM (5-LOX; 100 µM, mean ± SEM): 59.5%

C/C=C(/C=O)[C@@H](CC=O)CC(=O)OCCc1ccc(O)c(O)c1 [oleacein]
IC50 [1]: 16.1 µM
inhibition at 100 µM [1]: 100%
inhibition at 100 µM (5-LOX; 100 µM, mean ± SEM): 58.1%
IC50 (5-LOX): 45 µM
IC50 (COX-1): 1.46 µM
inhibitory activity on COX-2, times greater than oleocanthal (COX-2; from IC50 1.27 µM versus 16.6 µM): 13 times
IC50 (COX-2; read-out: IC50 COX-2): 1.27 µM and < 3 µM

CC(=O)OCCc1ccc(O)c(O)c1 [AcHyTy, hydroxytyrosol acetate]
IC50 [1]: 73.5 µM
inhibition at 100 µM [1]: 86.1%
IC50 (5-LOX): 107 µM
inhibition at 100 µM (5-LOX): 49%
IC50 (COX-1): 0.3 µM
IC50 (COX-2; read-out: IC50 COX-2): 13.3 µM

OCCc1ccc(O)c(O)c1 [HyTy, hydroxytyrosol]
inhibition at 100 µM [1]: 18.6%
inhibition at 100 µM (5-LOX; 100 µM, mean ± SEM): 22.2%
IC50 (COX-1): 0.13 µM
IC50 (COX-2; IC50 COX-2): 2.42 µM and 2.4 µM and < 3 µM

From paper PMC9687571, “Anti-Inflammatory Activity of Olive Oil Polyphenols—The Role of Oleacein and Its Metabolites” (Biomedicines, 2022)
